Measured values as given in US8680113B2, “BMI-1 protein expression modulators” (PTC Therapeutics, Inc., priority 2008, dated 2014).

Each compound was assayed on Bmi-1 (assay: Sandwich ELISA Assay (Bmi-1 ELISA in HT-1080 cells)).
Assay type: cell-based, human
Method: Cell Seeding and Compound Treatment (Day 1):
HT-1080 cells were seeded at 8000 cells/well (50 uL) in 96-well tissue culture plates. After the cells become adherent (3-4 hours), 2× diluted stocks of compounds in 50 uL DMEM containing 1% DMSO (final DMSO concentration was 0.5%) were added and the plates were incubated at 37° C. under 5% CO2 for 40-48 hours
ELISA Plate First Antibody Preparation (Day 2):
The First Antibody (Millipore Mouse, monoclonal to mouse Bmi-1, clone F6, catalog #05-637) diluted to 2 ug/mL in PBS was added (100 uL) to each well of a Nunc MaxiSorp 96-well ELISA plate. The plate was covered with a plate seal and allowed to stand overnight.
Cell Lysate Preparation (Day 3):
Fresh 1× Lysis buffer was prepared on the day of the assay as follows: 1 mM EDTA, 150 mM NaCl, 0.5% Triton-X 100, 10 mM NaF, 20 mM B-Glycerophosphate, 1 mM DTT (in PBS, pH 7.2-7.4) and 1×HALT protease inhibitor cocktail (Pierce #78410).
1× Lysis Buffer (40 uL) was added to each well and the plate was shaken for 5-10 minutes on an orbital shaker to allow cell lysis, then Diluent (1% BSA in PBS in 0.5% NP40) (100 uL) was added to each well.
The Bmi-1 standard curve was prepared in Diluent at the following concentrations of protein: 8000, 4000, 2000, 1000, 500, 250, 125, 0 pg/mL The Bmi-1 Recombinant Protein Standard (Novus Biologicals PCGF4 Recombinant Protein (P01), catalog #H00000648-P01) used in the standard curve was stored at −80° C., and on first thaw, diluted to 10 ug/uL in Blocking Buffer (1% BSA in PBS; BSA: Fisher Scientific Catalog #1600-100) before being aliquoted and refrozen at −80° C. Aliquots can be kept at 4° C. and reused after first thaw, but only for 1-2 weeks. The Bmi-1 Recombinant Protein Standard contains a GST-fusion tag and thus will show up on western blots around 70 Kda.
The prepared ELISA plate was washed 3× with Wash Buffer (0.05% Tween-20 in PBS). The final wash was removed from the plate and the plate was blotted dry on paper towels. Blocking Buffer (300 uL) (1% BSA in PBS) was added per well. The plate was covered with a plate seal and incubated at room temperature for 1 hour. The blocked plate was washed 3× with Wash Buffer, the final wash was removed and the plate was blotted dry on paper towels. The previously prepared samples and standards were added (at 100 uL/well) and the plate was covered with a plate seal and incubated at 4° C. overnight.
The prepared ELISA plate was removed from 4° C., incubated at room temperature for 30 minutes, then washed and blotted dry as previously described for Day 3. The Second Antibody (Cell Signaling Rabbit anti-Bmi-1, Cat#2830) diluted to 1:600 in Blocking Buffer was added (100 uL) to each well, except as needed for background control wells. The plate was covered with a plate seal and incubated for 1.5 hrs at room temperature.
The ELISA plate was washed and blotted dry as previously described. The Third Antibody (Cell Signaling HRP conjugated anti-rabbit IgG (CellSignaling, Cat#:7074) diluted to 1:300 in Blocking Buffer was added (100 uL) to each well, except as needed for background control wells. The plate was incubated for 1 hr at room temperature.
The plate was washed and blotted dry as previously described, then prepared TMB substrate (TMB substrate kit, Pierce catalog #34021) (prepared by mixing kit reagents 1:1) (100 uL) was added per well. The plate was incubated for 20-30 minutes at room temperature in the dark, then Stop Solution (2 M sulfuric acid in water) (50 uL) was added per well. The plates were read at OD450 (experimental) and OD570 (reference).

| IC50 [nM] | Compound |
| --- | --- |
| < 500 | Cc1nc2ccccn2c1-c1ccnc(N(C)c2ccc3c(c2)OCO3)n1 [Cpd 139, N-(1,3-benzodioxol-5-yl)-N-methyl-4-(2-methylimidazo[1,2-a]pyridin-3-yl)pyrimidin-2-amine] |
| < 500 | CCN(CC)c1ccc(N(C)c2nccc(-c3c(C)nc4ccccn34)n2)cc1 [Cpd 138, N,N-diethyl-N′-methyl-N′-[4-(2-methylimidazo[1,2-a]pyridin-3-yl)pyrimidin-2-yl]benzene-1,4-diamine] |
| < 500 | Cc1nc2c(Br)cccn2c1-c1csc(Nc2ccc3c(c2)OCO3)n1 [Cpd 235, N-(1,3-benzodioxol-5-yl)-4-(8-bromo-2-methylimidazo[1,2-a]pyridin-3-yl)-1,3-thiazol-2-amine] |
| < 500 | CC(=O)c1ccc(Nc2nccc(-c3c(C)nc4ncccn34)n2)cc1 [Cpd 131, 1-(4-{[4-(2-methylimidazo[1,2-a]pyrimidin-3-yl)pyrimidin-2-yl]amino}phenyl)ethanone] |
| < 500 | Cc1ccc(Nc2nc(-c3c(C)nc4cc(C)ccn34)cs2)cc1 [Cpd 32, 4-(2,7-dimethylimidazo[1,2-a]pyridin-3-yl)-N-(4-methylphenyl)-1,3-thiazol-2-amine] |
| < 500 | COc1ccc(Nc2nc(-c3cnc4ccc(Cl)cn34)cs2)cc1 [Cpd 105, 4-(6-chloroimidazo[1,2-a]pyridin-3-yl)-N-(4-methoxyphenyl)-1,3-thiazol-2-amine] |
| < 500 | COc1ccc(Nc2nc(-c3c(C)nc4cc(Cl)ccn34)cs2)cc1 [Cpd 241, 4-(7-chloro-2-methylimidazo[1,2-a]pyridin-3-yl)-N-(4-methoxyphenyl)-1,3-thiazol-2-amine] |
| 500 to 1000 | Clc1ccccc1Nc1nccc(-c2cnc3ccccn23)n1 [Cpd 247, N-(2-chlorophenyl)-4-(imidazo[1,2-a]pyridin-3-yl)pyrimidin-2-amine] |
| < 500 | COc1ccc(Nc2nc(-c3c(C)nc4cc(C)ccn34)cs2)cc1 [Cpd 17, 4-(2,7-dimethylimidazo[1,2-a]pyridin-3-yl)-N-(4-methoxyphenyl)thiazol-2-amine] |
| < 500 | COc1ccc(Nc2nc(-c3c(C)nc4ccccn34)cs2)cc1Cl [Cpd 50, N-(3-chloro-4-methoxyphenyl)-4-(2-methylimidazo[1,2-a]pyridin-3-yl)-1,3-thiazol-2-amine] |
| < 500 | COc1cccc(Nc2nc(-c3c(C)nc4c(C)cccn34)cs2)c1 [Cpd 225, 4-(2,8-dimethylimidazo[1,2-a]pyridin-3-yl)-N-(3-methoxyphenyl)-1,3-thiazol-2-amine] |
| < 500 | CCCc1nc2ccccn2c1-c1csc(Nc2ccc(Cl)cc2)n1 [Cpd 178, N-(4-chlorophenyl)-4-(2-propylimidazo[1,2-a]pyridin-3-yl)-1,3-thiazol-2-amine] |
| < 500 | COc1ccc(Nc2nc(-c3c(C)nc4cc(C)ccn34)cs2)cc1F [Cpd 66, 4-(2,7-dimethylimidazo[1,2-a]pyridin-3-yl)-N-(3-fluoro-4-methoxyphenyl)-1,3-thiazol-2-amine] |
| < 500 | CCc1nc2ncccn2c1-c1csc(Nc2ccc(N(C)C)cc2)n1 [Cpd 145, N′-[4-(2-ethylimidazo[1,2-a]pyrimidin-3-yl)-1,3-thiazol-2-yl]-N,N-dimethylbenzene-1,4-diamine] |
| < 500 | Cc1nc2ccccn2c1-c1ccnc(Nc2ccc(Br)cc2)n1 [Cpd 114, N-(4-bromophenyl)-4-(2-methylimidazo[1,2-a]pyridin-3-yl)pyrimidin-2-amine] |
| < 500 | COc1ccc(Nc2nc(-c3c(C)nc4ncccn34)cs2)cc1Cl [Cpd 46, N-(3-chloro-4-methoxyphenyl)-4-(2-methylimidazo[1,2-a]pyrimidin-3-yl)-1,3-thiazol-2-amine] |
| < 500 | Cc1nc2ncccn2c1-c1csc(Nc2ccc3c(c2)OCO3)n1 [Cpd 37, N-(1,3-benzodioxol-5-yl)-4-(2-methylimidazo[1,2-a]pyrimidin-3-yl)-1,3-thiazol-2-amine] |

| IC50 [nM] | Compound |
| --- | --- |
| < 500 | Cc1nc2ccccn2c1-c1ccnc(Nc2ccc(N(C)C)cc2)n1 [Cpd 129, N,N-dimethyl-N′-[4-(2-methylimidazo[1,2-a]pyridin-3-yl)pyrimidin-2-yl]benzene-1,4-diamine] |
| < 500 | Cc1nc2ccc(Cl)cn2c1-c1csc(Nc2ccc(O)cc2)n1 [Cpd 92, 4-{[4-(6-chloro-2-methylimidazo[1,2-a]pyridin-3-yl)-1,3-thiazol-2-yl]amino}phenol] |
| < 500 | Cc1nc2c(Br)cccn2c1-c1csc(Nc2ccc(Cl)cc2)n1 [Cpd 230, 4-(8-bromo-2-methylimidazo[1,2-a]pyridin-3-yl)-N-(4-chlorophenyl)-1,3-thiazol-2-amine] |
| < 500 | Cc1nc2ccccn2c1-c1csc(Nc2ccc(Br)cc2)n1 [Cpd 197, N-(4-bromophenyl)-4-(2-methylimidazo[1,2-a]pyridin-3-yl)-1,3-thiazol-2-amine] |
| < 500 | Cc1nc2ccccn2c1-c1csc(Nc2ccc(Br)cc2Cl)n1 [Cpd 200, N-(4-bromo-2-chlorophenyl)-4-(2-methylimidazo[1,2-a]pyridin-3-yl)-1,3-thiazol-2-amine] |
| < 500 | Cc1nc2ncccn2c1-c1csc(Nc2c(Cl)cccc2Cl)n1 [Cpd 38, N-(2,6-dichlorophenyl)-4-(2-methylimidazo[1,2-a]pyrimidin-3-yl)-1,3-thiazol-2-amine] |
| < 500 | Cc1nc2ccccn2c1-c1csc(Nc2cccc(O)c2)n1 [Cpd 35, 3-{[4-(2-methylimidazo[1,2-a]pyridin-3-yl)-1,3-thiazol-2-yl]amino}phenol] |
| < 500 | COc1ccc(Nc2nccc(-c3cnc4ncccn34)n2)cc1 [Cpd 261, 4-(imidazo[1,2-a]pyrimidin-3-yl)-N-(4-methoxyphenyl)pyrimidin-2-amine] |
| < 500 | CCCc1nc2ccccn2c1-c1csc(Nc2ccc(Br)cc2)n1 [Cpd 179, N-(4-bromophenyl)-4-(2-propylimidazo[1,2-a]pyridin-3-yl)-1,3-thiazol-2-amine] |
| < 500 | CCN(CC)c1ccc(Nc2nc(-c3c(C)nc4ccc(Cl)cn34)cs2)cc1 [Cpd 206, N′-[4-(6-chloro-2-methylimidazo[1,2-a]pyridin-3-yl)-1,3-thiazol-2-yl]-N,N-diethylbenzene-1,4-diamine] |
| < 500 | COc1ccc(Nc2nc(-c3c(C)nc4ccc(Br)cn34)cs2)cc1Cl [Cpd 103, 4-(6-bromo-2-methylimidazo[1,2-a]pyridin-3-yl)-N-(3-chloro-4-methoxyphenyl)-1,3-thiazol-2-amine] |
| < 500 | Cc1nc2ccccn2c1-c1csc(Nc2ccc(O)cc2)n1 [Cpd 36, 4-{[4-(2-methylimidazo[1,2-a]pyridin-3-yl)-1,3-thiazol-2-yl]amino}phenol] |
| < 500 | Cc1nc2ccccn2c1-c1ccnc(N(C)c2ccc(N(C)C)cc2)n1 [Cpd 137, N,N,N′-trimethyl-N′-[4-(2-methylimidazo[1,2-a]pyridin-3-yl)pyrimidin-2-yl]benzene-1,4-diamine] |
| < 500 | Cc1ccc(Nc2nc(-c3c(C)nc4ccc(F)cn34)cs2)cc1 [Cpd 237, 4-(6-fluoro-2-methylimidazo[1,2-a]pyridin-3-yl)-N-(4-methylphenyl)-1,3-thiazol-2-amine] |
| < 500 | CC(=O)c1ccc(Nc2nc(-c3c(C)nc4cc(C)ccn34)cs2)cc1 [Cpd 33, 1-(4-{[4-(2,7-dimethylimidazo[1,2-a]pyridin-3-yl)-1,3-thiazol-2-yl]amino}phenyl)ethanone] |
| < 500 | Cc1nc2ccc(Br)cn2c1-c1csc(Nc2ccc(N(C)C)cc2)n1 [Cpd 81, N′-[4-(6-bromo-2-methylimidazo[1,2-a]pyridin-3-yl)-1,3-thiazol-2-yl]-N,N-dimethylbenzene-1,4-diamine] |
